{"source": "patent US20220168392A1", "about": "(priority 2019, published 2022)", "key": {"[1]": {"tested_on": "CD2F1 male mice exposed to TBI", "assay": "30-day survival after total body irradiation (TBI) in CD2F1 mice", "format": "in vivo, mouse", "conditions": "for Survival treatment / Survival Differential (Treatment-Vehicle): CD2F1 M; for Dose Reduction Factor: male CD2F1"}, "[2]": {"tested_on": "C3H/HeN male mice exposed to TBI", "assay": "30-day survival after TBI in C3H/HeN mice", "format": "in vivo, mouse", "conditions": "C3H/HeN M, 8.75 Gy, 3 mg/kg single dose, Pre −24 hr; for Survival treatment: 3 mg/kg", "excerpt": "Total Body Irradiation (TBI). Mice were irradiated bilaterally in the Cobalt-60 gamma-irradiation facility at the AFRRI. These animals were placed in well-ventilated plexiglass chambers made specifically for irradiating mice. An alanine/Electron Spin Resonance (ESR) dosimetry system (American Society for Testing and Material Standard E 1607) was used to measure the dose rates in the cores of acrylic phantoms (3 inches long and 1 inch in diameter) located in all empty slots of the exposure rack in the plexiglass chamber. ESR signals were measured with a calibration curve based on standard calibration dosimeters provided by the National Institute of Standard and Technology (NIST, Gaithersburg, Md.). The calibration curve was verified by inter-comparison with the National Physical Laboratory (NPL) in the United Kingdom. The corrections applied to the measured dose rates in phantoms were for decay of the Co-60 source and for a small difference in mass-energy absorption coefficients for water and soft tissue at the Co-60 energy level. Kaplan-Meier survival curves were plotted using GraphPad software; and trend in survival is compared between vehicle and drug-treated group.\nThe survival efficacy of RWJ-800088 was tested in C57BL/6 (another strain of mice with different radiation sensitivity compared to CD2F1) in males and females. […] All animals in saline treated groups (males and females) died whereas there was no mortality in RWJ-800088 treated groups 30 days post-TBI. […] All animals in saline treated groups died whereas there was 92% survival observed in the RWJ-800088 (24 h pre-TBI) treated group 30 days post-TBI."}, "[3]": {"conditions": "10.5 Gy, 0.1 mg/kg single dose, Pre −24 hr"}, "[4]": {"conditions": "10.5 Gy, 0.3 mg/kg single dose, Pre −24 hr"}, "[5]": {"conditions": "10.5 Gy, 1 mg/kg single dose, Pre −24 hr"}, "[6]": {"conditions": "10.5 Gy, 3 mg/kg single dose, Pre −24 hr, listed as TPOm, 3 mg/kg"}, "[7]": {"conditions": "11 Gy, 1 mg/kg single dose, Pre −2 hr"}, "[8]": {"conditions": "11 Gy, 1 mg/kg single dose, Pre −12 hr"}, "[9]": {"conditions": "11 Gy, 1 mg/kg single dose, Pre −24 hr, listed as TPOm, 1 mg/kg"}, "[10]": {"conditions": "11.5 Gy, 3 mg/kg single dose, Pre −24 hr"}, "[11]": {"conditions": "11.75 Gy, 3 mg/kg single dose, Pre −24 hr"}, "[12]": {"conditions": "12 Gy, 1 mg/kg single dose, Pre −24 hr"}, "[13]": {"conditions": "12 Gy, 3 mg/kg single dose, Pre −24 hr"}, "[14]": {"conditions": "12.5 Gy, 1 mg/kg single dose, Pre −24 hr"}, "[15]": {"conditions": "12.5 Gy, 3 mg/kg single dose, Pre −24 hr"}, "[16]": {"conditions": "13 Gy, 1 mg/kg single dose, Pre −24 hr"}, "[17]": {"conditions": "13.5 Gy, 1 mg/kg single dose, Pre −24 hr"}, "[18]": {"conditions": "14 Gy, 1 mg/kg single dose, Pre −24 hr"}}, "note": "Values joined by “and” are separate entries in the source; they are usually repeats but may differ in a detail not shown here. Equal values may be shown once. Square brackets hold non-standard residues; d marks the D form. * marks the point of attachment. 2Nal = N[C@@H](Cc1ccc2ccccc2c1)C(=O)O; Propionyl = CCC(=O)*; Sar = CNCC(=O)O"}
{"substance": "methoxypolyethyleneglycol20000-propionyl-L-Isoleucyl-L-Glutamyl-Glycyl-L-Prolyl-L-Threonyl-L-Leucyl-L-Arginyl-L-Glutaminyl-L-2-Naphthylalanyl-L-Leucyl-L-Alanyl-L-Alanyl-L-Arginyl-Sarcosyl-Ne-(methoxypolyethyleneglycol20000-propionyl-L-Isoleucyl-L-Glutamyl-Glycyl-L-Prolyl-L-Threonyl-L-Leucyl-L-Arginyl-L-Glutaminyl-L-2-Naphthylalanyl-L-Leucyl-L-Alanyl-L-Alanyl-L-Arginyl-Sarcosyl-)-Lysinamide ({mPEG 20 kDa-Propionyl}-IEGPTLRQ[2Nal]LAAR[Sar]K-NH2; also: dimer: second identical mPEG-propionyl chain on Lys Nε of C-terminal lysinamide) [RWJ-800088]", "values": [{"measurement": "Survival treatment", "setting": "[1]; 9.75 Gy, 3 mg/kg single dose, Pre −24 hr", "result": 100, "unit": "%"}, {"measurement": "Survival Differential (Treatment-Vehicle)", "setting": "[1]; [3]", "result": 90, "unit": "%"}, {"measurement": "Survival treatment", "setting": "[1]; [3]", "result": 90, "unit": "%"}, {"measurement": "Survival Differential (Treatment-Vehicle)", "setting": "[1]; [4]", "result": 95, "unit": "%"}, {"measurement": "Survival treatment", "setting": "[1]; [4]", "result": 95, "unit": "%"}, {"measurement": "Survival Differential (Treatment-Vehicle)", "setting": "[1]; [5]", "result": 100, "unit": "%"}, {"measurement": "Survival treatment", "setting": "[1]; [5]", "result": 100, "unit": "%"}, {"measurement": "Survival Differential (Treatment-Vehicle)", "setting": "[1]; [6]", "result": "90% and 100%"}, {"measurement": "Survival treatment", "setting": "[1]; [6]", "result": "90% and 100%"}, {"measurement": "Survival Differential (Treatment-Vehicle)", "setting": "[1]; 11 Gy, 0.1 mg/kg single dose, Pre −24 hr", "result": 54, "unit": "%"}, {"measurement": "Survival treatment", "setting": "[1]; 11 Gy, 0.1 mg/kg single dose, Pre −24 hr, 0.1 mg/kg", "result": 54, "unit": "%"}, {"measurement": "Survival treatment", "setting": "[1]; 11 Gy, 0.1 mg/kg single dose, Pre −24 hr, listed as TPOm, 0.1 mg/kg", "result": 54, "unit": "%"}, {"measurement": "Survival Differential (Treatment-Vehicle)", "setting": "[1]; 11 Gy, 0.3 mg/kg single dose, Pre −24 hr", "result": 83, "unit": "%"}, {"measurement": "Survival treatment", "setting": "[1]; 11 Gy, 0.3 mg/kg single dose, Pre −24 hr, 0.3 mg/kg", "result": 83, "unit": "%"}, {"measurement": "Survival treatment", "setting": "[1]; 11 Gy, 0.3 mg/kg single dose, Pre −24 hr, listed as TPOm, 0.3 mg/kg", "result": 83, "unit": "%"}, {"measurement": "Survival Differential (Treatment-Vehicle)", "setting": "[1]; [7]", "result": 17, "unit": "%"}, {"measurement": "Survival treatment", "setting": "[1]; [7]", "result": 17, "unit": "%"}, {"measurement": "Survival Differential (Treatment-Vehicle)", "setting": "[1]; [8]", "result": 100, "unit": "%"}, {"measurement": "Survival treatment", "setting": "[1]; [8]", "result": 100, "unit": "%"}, {"measurement": "Survival treatment", "setting": "[1]; 11 Gy, 1 mg/kg single dose, Pre −24 hr, 1 mg/kg", "result": 96, "unit": "%"}, {"measurement": "Survival Differential (Treatment-Vehicle)", "setting": "[1]; [9]", "result": "71% and 96% and 100%"}, {"measurement": "Survival treatment", "setting": "[1]; [9]", "result": "71% and 96% and 100%"}, {"measurement": "Survival Differential (Treatment-Vehicle)", "setting": "[1]; 11 Gy, 3 mg/kg single dose, Pre −24 hr", "result": 100, "unit": "%"}, {"measurement": "Survival treatment", "setting": "[1]; 11 Gy, 3 mg/kg single dose, Pre −24 hr, 3 mg/kg", "result": 100, "unit": "%"}, {"measurement": "Survival treatment", "setting": "[1]; 11 Gy, 3 mg/kg single dose, Pre −24 hr, listed as TPOm, 3 mg/kg", "result": 100, "unit": "%"}, {"measurement": "Survival Differential (Treatment-Vehicle)", "setting": "[1]; [10]", "result": 92, "unit": "%"}, {"measurement": "Survival treatment", "setting": "[1]; [10]", "result": 92, "unit": "%"}, {"measurement": "Survival Differential (Treatment-Vehicle)", "setting": "[1]; [11]", "result": 75, "unit": "%"}, {"measurement": "Survival treatment", "setting": "[1]; [11]", "result": 75, "unit": "%"}, {"measurement": "Survival Differential (Treatment-Vehicle)", "setting": "[1]; [12]", "result": 88, "unit": "%"}, {"measurement": "Survival treatment", "setting": "[1]; [12]", "result": 88, "unit": "%"}, {"measurement": "Survival Differential (Treatment-Vehicle)", "setting": "[1]; [13]", "result": 83, "unit": "%"}, {"measurement": "Survival treatment", "setting": "[1]; [13]", "result": 83, "unit": "%"}, {"measurement": "Survival Differential (Treatment-Vehicle)", "setting": "[1]; [14]", "result": 54, "unit": "%"}, {"measurement": "Survival treatment", "setting": "[1]; [14]", "result": 54, "unit": "%"}, {"measurement": "Survival Differential (Treatment-Vehicle)", "setting": "[1]; [15]", "result": 46, "unit": "%"}, {"measurement": "Survival treatment", "setting": "[1]; [15]", "result": 46, "unit": "%"}, {"measurement": "Survival Differential (Treatment-Vehicle)", "setting": "[1]; [16]", "result": 42, "unit": "%"}, {"measurement": "Survival treatment", "setting": "[1]; [16]", "result": 42, "unit": "%"}, {"measurement": "Survival Differential (Treatment-Vehicle)", "setting": "[1]; [17]", "result": 13, "unit": "%"}, {"measurement": "Survival treatment", "setting": "[1]; [17]", "result": 13, "unit": "%"}, {"measurement": "Survival Differential (Treatment-Vehicle)", "setting": "[1]; [18]", "result": 1, "unit": "%"}, {"measurement": "Survival treatment", "setting": "[1]; [18]", "result": 1, "unit": "%"}, {"measurement": "enhancement in survival efficacy", "setting": "[1]; CD2F1 male, 1 mg/kg administered 24 h prior to radiation exposure (FIG. 13)", "result": "~100", "unit": "%"}, {"measurement": "survival", "setting": "[1]; CD2F1 male, 9.35 Gy, 0.3 mg/kg 24 h pre-TBI (FIG. 3A)", "result": 83, "unit": "%"}, {"measurement": "survival, 3-dose regimen", "setting": "[1]; CD2F1 male, 9.35 Gy, 0.3 mg/kg/dose SC at 24 h+48 h+72 h post-TBI", "result": 50, "unit": "%"}, {"measurement": "survival, 2-dose regimen", "setting": "[1]; CD2F1 male, 9.35 Gy, 0.3 mg/kg/dose SC at 24 h+48 h post-TBI", "result": 54, "unit": "%"}, {"measurement": "survival", "setting": "[1]; CD2F1 male, 9.75 Gy, RWJ-800088 treated groups 0.1-3 mg/kg 24 h pre-TBI (FIG. 3B)", "result": "92-100%"}, {"measurement": "percent survival", "setting": "[1]; CD2F1 male, 10.5 Gy, range of doses 0.1-3 mg/kg 24 h pre-TBI (FIG. 3C)", "result": "90-100%"}, {"measurement": "Effects", "setting": "[1]; Mice, whole body irradiation, whole wrapped cell: Enhanced survival, mitigation against thrombocytopenia, anemia, reduced adhesion protein expression on endothelial cells", "result": "Enhanced survival,"}, {"measurement": "Dose Reduction Factor", "setting": "[1]; 1 mg/kg 24 h post-TBI (FIG. 14)", "result": 1.05}, {"measurement": "Dose Reduction Factor", "setting": "[1]; 1 mg/kg 24 h pre-TBI (FIG. 15)", "result": 1.38}, {"measurement": "optimum single dose as mitigator of radiation induced mortality in mice", "setting": "[1]; post-TBI administration", "result": "0.3 to 1.0", "unit": "mg/kg"}, {"measurement": "Survival Differential (Treatment-Vehicle)", "setting": "[2]", "result": 92, "unit": "%"}, {"measurement": "Survival treatment", "setting": "[2]", "result": 92, "unit": "%"}, {"measurement": "Survival treatment", "setting": "[2]; listed as TPOm", "result": 92, "unit": "%"}]}
